# Reference: patent publication US8759481B2, “Peptide vaccines for cancers expressing tumor-associated antigens” (Oncotherapy Science, Inc., priority 2007, dated 2014)
# Columns and labels:
# Format in all cases: cell-based, human
# [1] = system: CD8+ T cells (HLA-A*2402 donors); assay: In vitro CTL induction with peptide-pulsed DCs (positive donor number); conditions: HLA-A*2402, 9-mer peptides derived from INHBB; positive/total donors
# How it was run: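 Autologous CD8+ T cells from HLA-A*2402 and/or A*0201 donors stimulated with MMC-inactivated monocyte-derived DCs pulsed with 20 μg/ml peptide, at 1:20 DC:T with IL-7, then IL-2 (20 IU/ml); restimulated days 7 and 14. CTL tested day 21 on peptide-pulsed A24-LCL or T2 cells; reported as positive/total donors.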
# [2] = system: peptide-pulsed A24-LCL cells; assay: IFN-gamma ELISPOT assay (positive wells); conditions: HLA-A*2402, 9-mer peptides derived from INHBB; positive/total wells
# How it was run: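 PBMC-derived DCs from HLA-A*2402 and/or A*0201 donors, pulsed with 20 micro g/ml peptide plus 3 micro g/ml beta 2-microglobulin, stimulated autologous CD8+ T cells three times (days 0, 7, 14). On day 21, responders were tested against peptide-pulsed A24-LCL or T2 cells by IFN-gamma ELISPOT. Values are reported as positive wells/wells tested; CTL lines confirmed by ELISA.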
# peptide-pulsed T2 cells [3] = assay: IFN-gamma ELISPOT assay (positive wells); conditions: HLA-A*0201, 9-mer peptides derived from INHBB; positive/total wells
# How it was run: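 CD8+ T cells from HLA-A*2402 and/or HLA-A*0201 donors were stimulated 1:20 with autologous monocyte-derived DCs pulsed with 20 µg/ml peptide plus β2-microglobulin, in IL-7, with IL-2 added, restimulated on days 7 and 14. On day 21, IFN-γ ELISPOT against peptide-pulsed T2 or A24-LCL cells (1×10^4/well) scored wells as positive, with CTL lines confirmed by ELISA.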
# peptide-pulsed T2 cells [4] = assay: CTL line establishment, IFN-gamma ELISA; conditions: HLA-A*0201, 9-mer peptides derived from INHBB; CTL lines/positive wells
# How it was run: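 CTLs expanded with MMC-inactivated B-lymphoblastoid lines, 40 ng/ml anti-CD3 and IL-2 (120 IU/ml day 1, then 30 IU/ml on days 5, 8, 11). Peptide-pulsed T2 or A24-LCL stimulators (1×10^4/well) incubated with cultured wells or limiting-dilution clones as responders; IFN-gamma detected by ELISPOT (positive wells) and ELISA (established CTL lines).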
sequence,measurement,setting,value
VQCDSCQEL,positive donor number,[1],0/1
same,positive well number,[2],0/8
same,positive well number,peptide-pulsed T2 cells [3],1/8
same,positive CTL line,peptide-pulsed T2 cells [4],0/1
